Measurements published in ChEMBL document CHEMBL1201862, “PubChem BioAssay data set” (2004).
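A five-concentration, 48-hour dose response in 96-well plates underlies each endpoint, interpolated linearly between surrounding concentrations. GI50: concentration for 50% inhibition of growth.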 Activity calls are given as the source filed them. Rule as the data show it: active = GI50 up to about 1.1 µM and inactive = higher.

Tests used:
Test in all cases: growth of human tumour cells (NCI), 48 h
[1] = system: SN12C
[2] = system: OVCAR-4
[3] = system: ACHN
[4] = system: HOP-92
[5] = system: LXFL 529
[6] = system: SNB-78
[7] = system: RPMI-8226
[8] = system: SNB-19
[9] = system: UO-31
[10] = system: SNB-75
[11] = system: HCT-116
[12] = system: EKVX
[13] = system: DMS-114
[14] = system: KM12
[15] = system: SK-MEL-28
[16] = system: HCT-15
[17] = system: OVCAR-5
[18] = system: A549
[19] = system: Malme-3M
[20] = system: SR
[21] = system: NCI-H226
[22] = system: HCC 2998
[23] = system: U-251
[24] = system: SK-OV-3
[25] = system: K562
[26] = system: CAKI-1
[27] = system: SK-MEL-5
[28] = system: NCI-H522
[29] = system: M19-MEL
[30] = system: SF-295
[31] = system: HOP-62
[32] = system: HT-29
[33] = system: M14
[34] = system: SK-MEL-2
[35] = system: TK-10
[36] = system: COLO 205
[37] = system: SF-268
[38] = system: UACC-257
[39] = system: NCI-H460
[40] = system: HL-60
[41] = system: LOX IMVI
[42] = system: RXF 631
[43] = system: XF498
[44] = system: CCRF-CEM
[45] = system: NCI-H23
[46] = system: UACC-62
[47] = system: OVCAR-3
[48] = system: RXF 393
[49] = system: IGROV-1
[50] = system: 786-0
[51] = system: MOLT-4
[52] = system: OVCAR-8
[53] = system: KM-20L2
[54] = system: DLD-1
[55] = system: SF-539
[56] = system: HOP-18
[57] = system: DMS-273
[58] = system: A498
[59] = system: SW-620

## CCOC(=O)COS(=O)(=O)C(F)(F)F
[1]
  GI50: > 100 µM (inactive)
[2]
  GI50: > 100 µM (inactive)
[3]
  GI50: > 100 µM (inactive)
[4]
  GI50: > 100 µM (inactive)
[5]
  GI50: 89.9 µM (inactive)
[6]
  GI50: > 100 µM (inactive)
[7]
  GI50: 23.9 µM (inactive)
[8]
  GI50: > 100 µM (inactive)
[9]
  GI50: > 100 µM (inactive)
[10]
  GI50: > 100 µM (inactive)
[11]
  GI50: 34.5 µM (inactive)
[12]
  GI50: > 100 µM (inactive)
[13]
  GI50: 17.1 µM (inactive)
[14]
  GI50: > 100 µM (inactive)
[15]
  GI50: > 100 µM (inactive)
[16]
  GI50: 18.5 µM
[17]
  GI50: > 100 µM (inactive)
[18]
  GI50: > 100 µM (inactive)
[19]
  GI50: > 100 µM (inactive)
[20]
  GI50: 24.7 µM (inactive)
[21]
  GI50: > 100 µM (inactive)
[22]
  GI50: > 100 µM (inactive)
[23]
  GI50: > 100 µM (inactive)
[24]
  GI50: > 100 µM (inactive)
[25]
  GI50: > 100 µM (inactive)
[26]
  GI50: > 100 µM (inactive)
[27]
  GI50: > 100 µM (inactive)
[28]
  GI50: > 100 µM (inactive)
[29]
  GI50: > 100 µM (inactive)
[30]
  GI50: > 100 µM (inactive)
[31]
  GI50: > 100 µM (inactive)
[32]
  GI50: > 100 µM (inactive)
[33]
  GI50: > 100 µM (inactive)
[34]
  GI50: > 100 µM (inactive)
[35]
  GI50: > 100 µM (inactive)
[36]
  GI50: 38 µM (inactive)
[37]
  GI50: 60.4 µM (inactive)
[38]
  GI50: > 100 µM (inactive)
[39]
  GI50: 41.9 µM (inactive)
[40]
  GI50: > 100 µM (inactive)
[41]
  GI50: 18.8 µM (inactive)
[42]
  GI50: 45.1 µM (inactive)
[43]
  GI50: > 100 µM (inactive)
[44]
  GI50: > 100 µM (inactive)
[45]
  GI50: > 100 µM (inactive)
[46]
  GI50: > 100 µM (inactive)
[47]
  GI50: > 100 µM (inactive)
[48]
  GI50: > 100 µM (inactive)
[49]
  GI50: > 100 µM (inactive)
[50]
  GI50: 35.4 µM (inactive)
[51]
  GI50: > 100 µM (inactive)
[52]
  GI50: > 100 µM (inactive)
[53]
  GI50: > 100 µM (inactive)
[54]
  GI50: 41.2 µM (inactive)
[55]
  GI50: > 100 µM (inactive)
[56]
  GI50: > 100 µM (inactive)
[57]
  GI50: 18.4 µM (inactive)
[58]
  GI50: > 100 µM (inactive)

## Nc1ncnc2c1ncn2COC/C=C/I
[1]
  GI50: > 100 µM (inactive)
[2]
  GI50: > 100 µM (inactive)
[3]
  GI50: > 100 µM (inactive)
[4]
  GI50: > 100 µM (inactive)
[5]
  GI50: > 100 µM (inactive)
[6]
  GI50: > 100 µM (inactive)
[7]
  GI50: > 100 µM (inactive)
[8]
  GI50: > 100 µM (inactive)
[9]
  GI50: > 100 µM (inactive)
[10]
  GI50: 36.7 µM (inactive)
[11]
  GI50: > 100 µM (inactive)
[12]
  GI50: 77.6 µM (inactive)
[13]
  GI50: > 100 µM (inactive)
[14]
  GI50: > 100 µM (inactive)
[15]
  GI50: > 100 µM (inactive)
[17]
  GI50: > 100 µM (inactive)
[18]
  GI50: > 100 µM (inactive)
[19]
  GI50: > 100 µM (inactive)
[20]
  GI50: > 100 µM (inactive)
[21]
  GI50: > 100 µM (inactive)
[22]
  GI50: > 100 µM (inactive)
[23]
  GI50: > 100 µM (inactive)
[24]
  GI50: > 100 µM (inactive)
[25]
  GI50: > 100 µM (inactive)
[26]
  GI50: > 100 µM (inactive)
[27]
  GI50: > 100 µM (inactive)
[28]
  GI50: > 100 µM (inactive)
[29]
  GI50: > 100 µM (inactive)
[30]
  GI50: > 100 µM (inactive)
[31]
  GI50: > 100 µM (inactive)
[32]
  GI50: > 100 µM (inactive)
[33]
  GI50: > 100 µM (inactive)
[34]
  GI50: > 100 µM (inactive)
[35]
  GI50: > 100 µM (inactive)
[36]
  GI50: > 100 µM (inactive)
[37]
  GI50: > 100 µM (inactive)
[38]
  GI50: > 100 µM (inactive)
[39]
  GI50: > 100 µM (inactive)
[41]
  GI50: > 100 µM (inactive)
[42]
  GI50: > 100 µM (inactive)
[43]
  GI50: > 100 µM (inactive)
[44]
  GI50: 85.3 µM (inactive)
[59]
  GI50: > 100 µM (inactive)
[45]
  GI50: > 100 µM (inactive)
[46]
  GI50: > 100 µM (inactive)
[47]
  GI50: > 100 µM (inactive)
[48]
  GI50: > 100 µM (inactive)
[49]
  GI50: > 100 µM (inactive)
[50]
  GI50: > 100 µM (inactive)
[51]
  GI50: > 100 µM (inactive)
[52]
  GI50: > 100 µM (inactive)
[54]
  GI50: > 100 µM (inactive)
[55]
  GI50: > 100 µM (inactive)
[56]
  GI50: 14 µM (inactive)
[57]
  GI50: > 100 µM (inactive)
[58]
  GI50: > 100 µM (inactive)

## Cn1c2c([N+](=O)[O-])[se]nc2c(=O)n1-c1ccc([N+](=O)[O-])cc1
[1]
  GI50: 1.71 µM (inactive)
[2]
  GI50: 0.447 µM (active)
[3]
  GI50: 1.95 µM (inactive)
[4]
  GI50: 1.63 µM (inactive)
[5]
  GI50: 1.25 µM (inactive)
[6]
  GI50: 1.99 µM (inactive)
[7]
  GI50: 1.82 µM (inactive)
[8]
  GI50: 6.01 µM (inactive)
[9]
  GI50: 1.91 µM (inactive)
[10]
  GI50: 4.03 µM (inactive)
[11]
  GI50: 0.887 µM (active)
[12]
  GI50: 2.38 µM (inactive)
[13]
  GI50: 0.254 µM (active)
[14]
  GI50: 4.51 µM (inactive)
[15]
  GI50: 2.11 µM (inactive)
[16]
  GI50: 1.25 µM
[17]
  GI50: 2.12 µM (inactive)
[18]
  GI50: 7.24 µM (inactive)
[19]
  GI50: 1.75 µM (inactive)
[20]
  GI50: 0.0474 µM (active)
[21]
  GI50: 2.96 µM (inactive)
[22]
  GI50: 1.74 µM (inactive)
[23]
  GI50: 2.51 µM (inactive)
[24]
  GI50: 2.72 µM (inactive)
[25]
  GI50: 0.0664 µM (active)
[26]
  GI50: 1.94 µM (inactive)
[27]
  GI50: 4.43 µM (inactive)
[28]
  GI50: 1.7 µM (inactive)
[30]
  GI50: 3.13 µM (inactive)
[31]
  GI50: 3.97 µM (inactive)
[32]
  GI50: 2.74 µM (inactive)
[33]
  GI50: 1.29 µM (inactive)
[34]
  GI50: 3.34 µM (inactive)
[35]
  GI50: 7.55 µM (inactive)
[36]
  GI50: 1.67 µM (inactive)
[37]
  GI50: 2.21 µM (inactive)
[38]
  GI50: 1.96 µM (inactive)
[39]
  GI50: 2.31 µM (inactive)
[40]
  GI50: 0.615 µM (active)
[41]
  GI50: 2.61 µM (inactive)
[42]
  GI50: 1.5 µM (inactive)
[43]
  GI50: 2.26 µM (inactive)
[44]
  GI50: 0.627 µM (active)
[59]
  GI50: 0.357 µM (active)
[45]
  GI50: 1.98 µM (inactive)
[46]
  GI50: 1.6 µM (inactive)
[47]
  GI50: 1.73 µM (inactive)
[48]
  GI50: 0.665 µM (active)
[49]
  GI50: 1.29 µM (inactive)
[50]
  GI50: 2.44 µM (inactive)
[52]
  GI50: 1.02 µM (active)
[53]
  GI50: 6.9 µM (inactive)
[54]
  GI50: 0.746 µM (active)
[55]
  GI50: 1.88 µM (inactive)
[56]
  GI50: 2.82 µM (inactive)
[57]
  GI50: 2.5 µM (inactive)
[58]
  GI50: 11.4 µM (inactive)
